Test results published in paper PMC11315935, “Multi-layered heterochromatin interaction as a switch for DIM2-mediated DNA methylation” (Nature Communications, 2024).

Tests used:
DIM2 [1] = assay: In vitro DNA methylation kinetics, substrate specificity of DIM2; assay type: biochemical, Neurospora Crassa; design: unit not given here; details: Sup Fig. 1f, 0.25 µM DIM2, 1.0 µM DNA, 1.0 µM H3K9me3 peptide, 0.5 µM HP1, pH 8.0, 30 °C
Experimental: (§1) In vitro DNA methylation assay was performed in a 20-µL reaction mixture. For the substrate specificity assay, the following DNA duplexes were used as substrates: CG DNA (Upper strand: 5’-[…]-3’), hemimethylated CG DNA (Upper strand: 5’-TAAATTTXGATTAATAAT-3’, X = 5-methylcytosine; Lower strand: 5’-[…] -3’), CHG DNA (Upper strand: 5’-[…]-3’), and CHH DNA (Upper strand: 5’-[…]-3’). The reaction mixture contains 0.25 µM DIM2, 1.0 µM DNA duplex, 1.0 µM synthesized H3K9me3 peptide (residues 1-24 of H3 plus a C-terminal tryptophan), 0.5 µM HP1, and 0.56 µM S-adenosyl-L-[methyl-^3H] methionine with a specific activity of 18 Ci/mmol (PerkinElmer) in buffer containing 50 mM Tris-HCl (pH 8.0), 100 mM NaCl, 0.05% β-mercaptoethanol, 5% glycerol, and 200 µg/mL BSA. For the rest of the DNA methylation assay, each reaction mixture contains 1.0 µM DIM2, 1.0 µM (CAT)12/(ATG)12 DNA duplex and 0.56 µM S-adenosyl-L-[methyl-^3H] methionine with a specific activity of 18 Ci/mmol (PerkinElmer) in buffer containing 50 mM Tris-HCl (pH 8.0), 100 mM NaCl, 0.05% β-mercaptoethanol, 5% glycerol, and 200 µg/mL BSA. In addition, 1.0 µM synthesized H3K9me3 or H3K9me0 peptide (residues 1-24 of H3 plus a C-terminal tryptophan) and/or 2 µM HP1 protein was included to evaluate the effect of H3 and HP1 regulation. The reaction mixture was incubated at 30 °C for 30 min, unless indicated otherwise, before being quenched by the addition of 5 µL of 10 mM cold SAM. After the reaction, 8 μL of the mixtures was loaded onto Hybond N nylon membrane (GE Healthcare), which was left to dry out at room temperature. The membrane was subsequently washed with 0.2 M ammonium bicarbonate (pH 8.2) two times (20 min per time), deionized water (20 min) once, and 95% ethanol (5 min) once. After air dried, the membrane carrying each sample was transferred into a vial containing 3 mL scintillation buffer (Fisher). The tritium scintillation was measured and recorded by a Beckman LS6500 counter. Each the reaction was repeated three times.

DIM2 [2] = assay: In vitro DNA methylation assay: effect of HP1 and H3 peptides on DIM2 activity; assay type: biochemical, Neurospora Crassa; design: DNA methylation activity of DIM2 in presence of HP1, WT or W98A: unit not given beside the values; details: for effect on DNA methylation activity of DIM2 (in words): 36-mer DNA duplex, 1.0 µM peptide and/or 2 µM HP1; for DNA methylation activity of DIM2 in presence of HP1, WT or W98A: Sup Fig. 1e, (CTA)12/(TAG)12 DNA duplex, 1.0 µM DIM2, 2 µM HP1, 30 °C, 30 min, pH 8.0
Experimental: as §1, with “1.0 µM (CAT)12/(ATG)12 DNA duplex and 0.56 µM S-adenosyl-L-[methyl-^3H]” left out

[3] = reaction time 0 min, replicate 1
[4] = reaction time 0 min, replicate 2
[5] = reaction time 0 min, replicate 3
[6] = reaction time 15 min, replicate 1
[7] = reaction time 15 min, replicate 2
[8] = reaction time 15 min, replicate 3
[9] = reaction time 30 min, replicate 1
[10] = reaction time 30 min, replicate 2
[11] = reaction time 30 min, replicate 3

| Substance | DNA methylation kinetics (DIM2 [1]; [3]) | DNA methylation kinetics (DIM2 [1]; [4]) | DNA methylation kinetics (DIM2 [1]; [5]) | DNA methylation kinetics (DIM2 [1]; [6]) | DNA methylation kinetics (DIM2 [1]; [7]) | DNA methylation kinetics (DIM2 [1]; [8]) | DNA methylation kinetics (DIM2 [1]; [9]) | DNA methylation kinetics (DIM2 [1]; [10]) | DNA methylation kinetics (DIM2 [1]; [11]) | effect on DNA methylation activity of DIM2 (in words) (DIM2 [2]) | DNA methylation activity of DIM2 in presence of HP1, WT or W98A (DIM2 [2]; replicate 1) | DNA methylation activity of DIM2 in presence of HP1, WT or W98A (DIM2 [2]; replicate 2) | DNA methylation activity of DIM2 in presence of HP1, WT or W98A (DIM2 [2]; replicate 3) |
| --- | --- | --- | --- | --- | --- | --- | --- | --- | --- | --- | --- | --- | --- |
| CG: CG DNA (Upper strand: 5’-ATTATTAATCGAAATTTA-3’) (DNA, backbone not given here; DNA duplex substrate for methylation assay) | 0.019 | 0.03 | 0.038 | 0.476 | 0.828 | 0.621 | 1.426 | 1.174 | 1.115 | – | – | – | – |
| CHG: CHG DNA (Upper strand: 5’-ATTATTAATCTGAATTTA-3’) (DNA, backbone not given here; DNA duplex substrate for methylation assay) | 0.037 | 0.044 | 0.013 | 1.24 | 1.116 | 1.338 | 1.866 | 1.872 | 1.906 | – | – | – | – |
| CHH: CHH DNA (Upper strand: 5’-ATTATTAATCTAAATTTA-3’) (DNA, backbone not given here; DNA duplex substrate for methylation assay) | 0.004 | 0.003 | 0.026 | 0.184 | 0.154 | 0.169 | 0.346 | 0.291 | 0.235 | – | – | – | – |
| H3_1-24K9me0: H3K9me0 peptide (residues 1-24 of H3 plus a C-terminal tryptophan), unmethylated H3 K9 | – | – | – | – | – | – | – | – | – | failed to synergize with HP1 to boost the DNA methylation activity of DIM2 | – | – | – |
| HP1WT: Neurospora Crassa HP1 (residues 1-266; Q1K612) | – | – | – | – | – | – | – | – | – | slight but notable activity of DIM2 | 22.922 | 23.125 | 22.99 |
